Measured values reported in patent US20240415819A1, “MACROCYCLIC COMPOUNDS AS PROTEASOME SUBUNIT BETA TYPE-5 INHIBITORS” (Lead Discovery Center GmbH, priority 2021, published 2024).

How the values were obtained:
hPMBC = assay: Chymotrypsin-like ProteasomeGlo assay in hPBMC; format: cell-based; settings: Homo sapiens; read-out: Pglo hPBMC
Method in brief: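 IC50 derived from luminescent chymotrypsin-like proteasome activity (Suc-LLVY-Glo substrate plus luciferin detection reagent). Measured after 105 min compound exposure at 37 °C, 5% CO2. Cells were human B cells purified from buffy-coat PBMC.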

[1] = target: T1, β5 subunit of the human immunoproteasome (IPS) (Homo sapiens, UniProt P28062); assay: β5 inhibition assay, human immunoproteasome (Suc-LLVY-AMC); format: biochemical; settings: IC50 class, Suc-LLVY-AMC substrate
T1 construct: purchased Boston Biochem E-370
Method in brief: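 β5 activity is read as liberated AMC fluorescence (355/460 nm) after 4 h dark reaction at RT with 22.6 μM Suc-LLVY-AMC, stopped by 1 μM bortezomib. Beforehand, 1 nM human IPS and compound sat 10 min at RT in HEPES pH 7.5 buffer containing NaCl, 0.02% SDS and DTT.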

IC50 (hPMBC) | IC50 [1] | Compound
< 100 nM | < 100 nM | Cc1ccc2cc1CNC(=O)[C@H](CCc1ccccc1)NC(=O)[C@@H](NC(=O)[C@H](C)c1ccccc1)CC(=O)N1CCCC(CCO2)C1 (stereo partly drawn) [Compound 80, (2R)-N-((9S,12S)-5^4-methyl-8,11,14-trioxo-9-phenethyl-4-oxa-7,10-diaza-1(3,1)-piperidina-5(1,3)-benzenacyclotetradecaphane-12-yl)-2-phenylpropanamide]
< 100 nM | < 100 nM | Cc1ccc2cc1CNC(=O)[C@H](CCc1ccccc1)NC(=O)[C@@H](NC(=O)C1CCCc3ccccc31)CC(=O)N1CCCC(CCO2)C1 (stereo partly drawn) [Compound 82, N-((9S,12S)-5^4-methyl-8,11,14-trioxo-9-phenethyl-4-oxa-7,10-diaza-1(3,1)-piperidina-5(1,3)-benzenacyclotetradecaphane-12-yl)-1,2,3,4-tetrahydronaphthalene-1-carboxamide]
< 100 nM | < 100 nM | Cc1ccc2cc1CNC(=O)[C@H](CCc1ccccc1)NC(=O)[C@@H](NC(=O)[C@@H](C)c1ccccc1)CC(=O)N1CCCC(CCO2)C1 (stereo partly drawn) [Compound 81, (2S)-N-((9S,12S)-5^4-methyl-8,11,14-trioxo-9-phenethyl-4-oxa-7,10-diaza-1(3,1)-piperidina-5(1,3)-benzenacyclotetradecaphane-12-yl)-2-phenylpropanamide]
< 100 nM | < 100 nM | Cc1ccc2cc1CNC(=O)[C@H](CCc1ccccc1)NC(=O)[C@@H](NC(=O)C(C)(C)C#N)CC(=O)N1CCCC(CCO2)C1 (stereo partly drawn) [Compound 294, 2-cyano-2-methyl-N-((9S,12S)-54-methyl-8,11,14-trioxo-9-phenethyl-4-oxa-7,10-diaza-1(3,1)-piperidina-5(1,3)-benzenacyclotetradecaphane-12-yl)propanamide]
< 100 nM | < 100 nM | Cc1ccc2cc1CNC(=O)[C@H](CCc1ccccc1)NC(=O)[C@@H](NC(=O)C(C)(CO)CO)CC(=O)N1CCCC(CCO2)C1 (stereo partly drawn) [Compound 286, 3-hydroxy-2-(hydroxymethyl)-2-methyl-N-((9S,12S)-5^4-methyl-8,11,14-trioxo-9-phenethyl-4-oxa-7,10-diaza-1(3,1)-piperidina-5(1,3)-benzenacyclotetradecaphane-12-yl)propanamide]
< 100 nM | < 100 nM | Cc1ccc2cc1CNC(=O)[C@H](CCc1ccccc1)NC(=O)[C@@H](NC(=O)c1cc3cc(C(F)(F)F)ccc3n1C)CC(=O)N1CCCC(CCO2)C1 (stereo partly drawn) [Compound 87, 1-methyl-N-((9S,12S)-5^4-methyl-8,11,14-trioxo-9-phenethyl-4-oxa-7,10-diaza-1(3,1)-piperidina-5(1,3)-benzenacyclotetradecaphane-12-yl)-5-(trifluoromethyl)-1H-indole-2-carboxamide]
< 100 nM | < 100 nM | CC(=O)N[C@H]1CCC(=O)NCCCCOc2ccc(C)c(c2)CNC(=O)[C@H](CCc2ccccc2)NC1=O [Compound 171, N-((11S,14S)-1^4-methyl-8,12,15-trioxo-14-phenethyl-2-oxa-7,13,16-triaza-1(1,3)-benzenacycloheptadecaphane-11-yl)acetamide]
< 100 nM | < 100 nM | Cc1ccc2cc1CNC(=O)[C@H](CCc1ccccc1)NC(=O)[C@@H](NC(=O)C1CC(F)(F)CN1)CC(=O)N1CCCC(CCO2)C1 (stereo partly drawn) [Compound 135, (2S)-4,4-difluoro-N-((9S,12S)-5^4-methyl-8,11,14-trioxo-9-phenethyl-4-oxa-7,10-diaza-1(3,1)-piperidina-5(1,3)-benzenacyclotetradecaphane-12-yl)pyrrolidine-2-carboxamide]
< 100 nM | < 100 nM | Cc1ccc2cc1CNC(=O)[C@H](CCc1ccccc1)NC(=O)[C@@H](NC(=O)Cc1ccc(N)cc1)CC(=O)N1CCCC(CCO2)C1 (stereo partly drawn) [Compound 128, 2-(4-aminophenyl)-N-((9S,12S)-5^4-methyl-8,11,14-trioxo-9-phenethyl-4-oxa-7,10-diaza-1(3,1)-piperidina-5(1,3)-benzenacyclotetradecaphane-12-yl)acetamide]
< 100 nM | < 100 nM | CC(=O)N[C@H]1CCC(=O)N2CCCC(CCOc3ccc(C)c(c3)CNC(=O)[C@H](CCc3ccccc3)NC1=O)C2 (stereo partly drawn) [Compound 215, N-((9S,12S)-5^4-methyl-8,11,15-trioxo-9-phenethyl-4-oxa-7,10-diaza-1(3,1)-piperidina-5(1,3)-benzenacyclopentadecaphane-12-yl)acetamide]
100 to 500 nM | < 100 nM | CC(=O)N[C@H]1CCCC(=O)N2CC3CC(Oc4ccc(C)c(c4)CNC(=O)[C@H](CCc4ccccc4)NC1=O)C3C2 (stereo partly drawn) [Compound 191, N-((11R,15S,7S,10S)-3^4-methyl-6,9,14-trioxo-7-phenethyl-2-oxa-13,5,8-triaza-1(7,3)-bicyclo[3.2.0]heptana-3(1,3)-benzenacyclotetradecaphane-10-yl)acetamide]

Second part, the compound before the results:

Compound | IC50 (hPMBC) | IC50 [1]
Cc1ccc2cc1CNC(=O)[C@H](CCc1ccccc1)NC(=O)[C@@H](NC(=O)CCc1ccc3[nH]ccc3c1)CC(=O)N1CCCC(CCO2)C1 (stereo partly drawn) [Compound 182, 3-(1H-indol-5-yl)-N-((9S,12S)-5^4-methyl-8,11,14-trioxo-9-phenethyl-4-oxa-7,10-diaza-1(3,1)-piperidina-5(1,3)-benzenacyclotetradecaphane-12-yl)propanamide] | < 100 nM | < 100 nM
Cc1ccc2cc1CNC(=O)[C@H](CCc1ccccc1)NC(=O)[C@@H](NC(=O)CCc1ccc(-c3ccccc3)cc1)CC(=O)N1CCCC(CCO2)C1 (stereo partly drawn) [Compound 176, 3-([1,1′-biphenyl]-4-yl)-N-((9S,12S)-5^4-methyl-8,11,14-trioxo-9-phenethyl-4-oxa-7,10-diaza-1(3,1)-piperidina-5(1,3)-benzenacyclotetradecaphane-12-yl)propanamide] | < 100 nM | < 100 nM
C=CC(=O)N[C@H]1CC(=O)N2CCCC(CCOc3ccc(C)c(c3)CNC(=O)[C@H](CCc3ccccc3)NC1=O)C2 (stereo partly drawn) [Compound 181, N-((9S,12S)-5^4-methyl-8,11,14-trioxo-9-phenethyl-4-oxa-7,10-diaza-1(3,1)-piperidina-5(1,3)-benzenacyclotetradecaphane-12-yl)acrylamide] | < 100 nM | < 100 nM
COc1ccc(CC(=O)N[C@H]2CC(=O)N3CCCC(CCOc4ccc(C)c(c4)CNC(=O)[C@H](CCc4ccccc4)NC2=O)C3)cc1 (stereo partly drawn) [Compound 83, 2-(4-methoxyphenyl)-N-((9S,12S)-5^4-methyl-8,11,14-trioxo-9-phenethyl-4-oxa-7,10-diaza-1(3,1)-piperidina-5(1,3)-benzenacyclotetradecaphane-12-yl)acetamide] | < 100 nM | < 100 nM
Cc1ccc2cc1CNC(=O)[C@H](Cc1c[nH]c3ccccc13)NC(=O)CCC(=O)N1CCCC(CCO2)C1 (stereo partly drawn) [Compound 77, (9S)-9-((1H-indol-3-yl)methyl)-5^4-methyl-4-oxa-7,10-diaza-1(3,1)-piperidina-5(1,3)-benzenacyclotetradecaphane-8,11,14-trione] | 100 to 500 nM | < 100 nM
COc1ccc(CC(=O)N[C@H]2CC(=O)N3CCCC(CCOc4ccc(C)c(c4)CNC(=O)[C@H](CCc4ccccc4)NC2=O)C3)cc1OC (stereo partly drawn) [Compound 63, 2-(3,4-dimethoxyphenyl)-N-((9S,12S)-5^4-methyl-8,11,14-trioxo-9-phenethyl-4-oxa-7,10-diaza-1(3,1)-piperidina-5(1,3)-benzenacyclotetradecaphane-12-yl)acetamide] | < 100 nM | < 100 nM
COc1cccc(CC(=O)N[C@H]2CC(=O)N3CCCC(CCOc4ccc(C)c(c4)CNC(=O)[C@H](CCc4ccccc4)NC2=O)C3)c1 (stereo partly drawn) [Compound 85, 2-(3-methoxyphenyl)-N-((9S,12S)-5^4-methyl-8,11,14-trioxo-9-phenethyl-4-oxa-7,10-diaza-1(3,1)-piperidina-5(1,3)-benzenacyclotetradecaphane-12-yl)acetamide] | < 100 nM | < 100 nM
C=CS(=O)(=O)N[C@H]1CC(=O)N2CCCC(CCOc3ccc(C)c(c3)CNC(=O)[C@H](CCc3ccccc3)NC1=O)C2 (stereo partly drawn) [Compound 180, N-((9S,12S)-5^4-methyl-8,11,14-trioxo-9-phenethyl-4-oxa-7,10-diaza-1(3,1)-piperidina-5(1,3)-benzenacyclotetradecaphane-12-yl)ethenesulfonamide] | < 100 nM | < 100 nM
Cc1ccc2cc1CNC(=O)[C@H](CCc1ccccc1)NC(=O)[C@@H](NC(=O)[C@@H](N)Cc1ccccc1)CC(=O)N1CCCC(CCO2)C1 (stereo partly drawn) [Compound 179, (2R)-2-amino-N-((9S,12S)-5^4-methyl-8,11,14-trioxo-9-phenethyl-4-oxa-7,10-diaza-1(3,1)-piperidina-5(1,3)-benzenacyclotetradecaphane-12-yl)-3-phenylpropanamide-] | < 100 nM | < 100 nM
CC(=O)N[C@H]1CCC(=O)N2CCOC(CCOc3ccc(C)c(c3)CNC(=O)[C@H](CCc3ccccc3)NC1=O)C2 (stereo partly drawn) [Compound 143, N-((9S,12S)-5^4-methyl-8,11,15-trioxo-9-phenethyl-4-oxa-7,10-diaza-1(2,4)-morpholina-5(1,3)-benzenacyclopentadecaphane-12-yl)acetamide] | < 100 nM | < 100 nM
Cc1nc2cc(CCC(=O)N[C@H]3CC(=O)N4CCCC(CCOc5ccc(C)c(c5)CNC(=O)[C@H](CCc5ccccc5)NC3=O)C4)ccc2[nH]1 (stereo partly drawn) [Compound 174, 3-(2-methyl-1H-benzo[d]imidazol-6-yl)-N-((9S,12S)-5^4-methyl-8,11,14-trioxo-9-phenethyl-4-oxa-7,10-diaza-1(3,1)-piperidina-5(1,3)-benzenacyclotetradecaphane-12-yl)propanamide] | < 100 nM | < 100 nM
